According to patent publication US20120258156A1, “SHAPED COMPOSITIONS FOR UNIFORM DELIVERY OF A FUNCTIONAL AGENT” (priority 2011, published 2012):

settings: salt at 5% by weight in about 10 g tablets with 75% to 95% by weight calcium hypochlorite; FIGS. 6-8
Description: The amount of calcium hypochlorite within each example ranged from 75% by weight to 95% by weight, while the various salts were included at 5% by weight, if at all.

Compound | effect of additive on dissolution of the calcium hypochlorite
O=S(=O)([O-])[O-].[Ca+2] [calcium sulfate] | slow dissolution
O=C([O-])[O-].[Na+].[Na+] [sodium carbonate] | slow dissolution
O=C([O-])[O-].[Ca+2] [calcium carbonate] | increase the rate of dissolution
O=S(=O)([O-])[O-].[Mg+2] [magnesium sulfate] | slow dissolution
[Mg+2].[OH-].[OH-] [magnesium hydroxide] | slow dissolution
